Experimental data taken from US20150105252A1, “SUBSTITUTED PYRAZOLES AS HERBICIDES” (E I DU PONT DE NEMOURS AND COMPANY, priority 2013, published 2015).

Columns and labels:
[1] = test system: crabgrass, large; experiment: Test A preemergence; assay type: in vivo, Digitaria sanguinalis; settings: preemergence; for Crabgrass, Large plant response rating (0 to 100 scale): visual injury approx. 10 days after treatment
In short: (§1)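 Scoring was visual, on a scale where 100 means complete control and 0 means no effect, comparing treated with untreated plants around 10 days post-application. Compounds in surfactant-containing non-phytotoxic solvent were sprayed onto soil preemergence or onto one- to two-leaf seedlings (2–10 cm) postemergence.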

[2] = test system: morningglory; experiment: Test A preemergence; assay type: in vivo, Ipomoea spp.; settings: preemergence; for Morningglory plant response rating (0 to 100 scale): visual injury approx. 10 days after treatment
In short: as §1

[3] = test system: barnyardgrass; experiment: Test A postemergence; assay type: in vivo, Echinochloa crus-galli
In short: as §1

[4] = test system: pigweed; experiment: Test A postemergence; assay type: in vivo, Amaranthus retroflexus
In short: as §1

[5] = test system: ryegrass, Italian; experiment: Test C preemergence; assay type: in vivo, Lolium multiflorum
Text: (§2) Seeds of plant species selected from blackgrass (Alopecurus myosuroides), ryegrass, Italian (Italian ryegrass, Lolium multiflorum), wheat (winter wheat, Triticum aestivum), galium (catchweed bedstraw, Galium aparine), corn (Zea mays), crabgrass, large (large crabgrass, Digitaria sanguinalis), foxtail, giant (giant foxtail, Setaria faberii), johnsongrass (Sorghum halepense), lambsquarters (Chenopodium album), morningglory (Ipomoea coccinea), nutsedge, yellow (yellow nutsedge, Cyperus esculentus), pigweed (redroot pigweed, Amaranthus retroflexus), ragweed (common ragweed, Ambrosia elation), soybean (Glycine max), barnyardgrass (Echinochloa crus-galli), oilseed rape (Brassica napus), waterhemp (common waterhemp, Amaranthus rudis), oat, wild (wild oat, Avena fatua), kochia (Kochia scoparia), Surinam grass (Brachiaria decumbens), foxtail, green (green foxtail, Setaria viridis), goosegrass (Eleusine indica), bromegrass, downy (downy bromegrass, Bromus tectorum), nightshade (eastern black nightshade, Solanum ptycanthum), cocklebur (common cocklebur, Xanthium strumarium), cupgrass, woolly (woolly cupgrass, Eriochloa villosa), bermudagrass (Cynodon dactylon), sunflower, (common oilseed sunflower, Helianthus annuus), Russian thistle (Salsola kali), and velvetleaf (Abutilon theophrasti) were planted into a blend of loam soil and sand and treated preemergence with test chemicals formulated in a non-phytotoxic solvent mixture which included a surfactant.
(§3) At the same time, plants selected from these crop and weed species and also chickweed (common chickweed, Stellaria media), canarygrass (littleseed canarygrass, Phalaris minor), and deadnettle (henbit deadnettle, Lamium amplexicaule), were planted in pots containing Redi-Earth® planting medium (Scotts Company, 14111 Scottslawn Road, Marysville, Ohio 43041) comprising spaghnum peat moss, vermiculite, wetting agent and starter nutrients and treated with postemergence applications of test chemicals formulated in the same manner. Plants ranged in height from 2 to 18 cm (1- to 4-leaf stage) for postemergence treatments. Treated plants and controls were maintained in a greenhouse for 13 to 15 days, after which time all species were compared to controls and visually evaluated. Plant response ratings, summarized in Table C, are based on a scale of 0 to 100 where 0 is no effect and 100 is complete control. A dash (-) response means no test result.

[6] = test system: crabgrass, large; experiment: Test C preemergence; assay type: in vivo, Digitaria sanguinalis
Text: as §2, §3

[7] = test system: foxtail, giant; experiment: Test C preemergence; assay type: in vivo, Setaria faberii
In short: (§4)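 Greenhouse pot test: preemergence application onto freshly seeded loam/sand mix, postemergence application onto seedlings (1–4 leaves, 2–18 cm) in peat-vermiculite substrate. Responses scored visually 13 to 15 days later relative to controls, where 0 means no effect and 100 means complete control; a dash indicates no result.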

[8] = test system: johnsongrass; experiment: Test C preemergence; assay type: in vivo, Sorghum halepense
Text: as §2, §3

[9] = test system: waterhemp; experiment: Test C preemergence; assay type: in vivo, Amaranthus rudis
In short: as §4

[10] = test system: velvetleaf; experiment: Test C preemergence; assay type: in vivo, Abutilon theophrasti
In short: as §4

[11] = 125 g ai/ha, visual injury, 0 to 100 scale, approx. 10 days
[12] = 500 g ai/ha, visual injury after approx. 10 days, 0 to 100 scale (0 no effect, 100 complete control)
[13] = Postemergence, 500 g ai/ha, 0 to 100 scale (0 no effect, 100 complete control)
[14] = postemergence, 125 g ai/ha, about 10 days, visual rating on 0 to 100 scale (0 no effect, 100 complete control)
[15] = Preemergence, 4 g ai/ha, scale 0 to 100
[16] = Preemergence, 8 g ai/ha, scale 0 to 100
[17] = Preemergence, 16 g ai/ha, scale 0 to 100
[18] = preemergence, 31 g ai/ha, visual rating, scale 0 to 100 (0 no effect, 100 complete control), 13 to 15 days
[19] = preemergence, 62 g ai/ha, scale 0 to 100 (0 no effect, 100 complete control), 13 to 15 days
[20] = preemergence, 125 g ai/ha, 13 to 15 days, scale 0 to 100, 0 = no effect, 100 = complete control
[21] = preemergence, 250 g ai/ha, scale 0 to 100, 0 is no effect, 100 is complete control

| SMILES | Crabgrass, Large plant response rating [1, 12] | Morningglory plant response rating [2, 12] | Barnyardgrass plant response rating [3, 13] | Barnyardgrass plant response rating [3, 14] | Pigweed plant response rating [4, 13] | Pigweed plant response rating [4, 14] | Plant response rating, Ryegrass, Italian [5, 17] | Ryegrass, Italian plant response rating [5, 18] | Plant response rating, Crabgrass, Large [6, 17] | Crabgrass, Large plant response rating [6, 18] | Plant response rating, Foxtail, Giant [7, 17] | Foxtail, Giant plant response rating [7, 18] | Plant response rating, Johnsongrass [8, 17] | Johnsongrass plant response rating [8, 18] | Plant response rating, Waterhemp [9, 17] | Waterhemp plant response rating [9, 18] | Plant response rating, Velvetleaf [10, 17] | Velvetleaf plant response rating [10, 18] | Crabgrass, Large plant response rating (0 to 100 scale) ([1]; 125 g ai/ha) | Morningglory plant response rating (0 to 100 scale) ([2]; 125 g ai/ha) | also measured |
| --- | --- | --- | --- | --- | --- | --- | --- | --- | --- | --- | --- | --- | --- | --- | --- | --- | --- | --- | --- | --- | --- |
| CCOc1cc(C(=O)NCC(F)(F)F)nn1Cc1cc(C(F)(F)F)nn1C [Compound 140] | 100 | 100 | 90 | 70 | 100 | 100 | 10 | 55 | 75 | 98 | 75 | 70 | 5 | 25 | 85 | 95 | 10 | 45 | – | – | Crabgrass, Large plant response rating [1, 11]: 100; Morningglory plant response rating [2, 11]: 80; Plant response rating, Ryegrass, Italian [5, 15]: 0; Plant response rating, Ryegrass, Italian [5, 16]: 5; Plant response rating, Crabgrass, Large [6, 15]: 45; Plant response rating, Crabgrass, Large [6, 16]: 55; Plant response rating, Foxtail, Giant [7, 15]: 20; Plant response rating, Foxtail, Giant [7, 16]: 40; Plant response rating, Johnsongrass [8, 15]: 20; Plant response rating, Johnsongrass [8, 16]: 5; Plant response rating, Waterhemp [9, 15]: 70; Plant response rating, Waterhemp [9, 16]: 70; Plant response rating, Velvetleaf [10, 15]: 0; Plant response rating, Velvetleaf [10, 16]: 5 |
| CCNC(=O)c1cc(CCF)n(Cc2ccnc(C(F)(F)F)c2)n1 [Compound 178] | 100 | 100 | 80 | 70 | 100 | 100 | 0 | 5 | 30 | 100 | 5 | 65 | 0 | 0 | 65 | 90 | 10 | 15 | 100 | 80 | Ryegrass, Italian plant response rating [5, 19]: 5; Plant response rating, Ryegrass, Italian [5, 20]: 15; Crabgrass, Large plant response rating [6, 19]: 95; Plant response rating, Crabgrass, Large [6, 20]: 100; Foxtail, Giant plant response rating [7, 19]: 90; Plant response rating, Foxtail, Giant [7, 20]: 100; Johnsongrass plant response rating [8, 19]: 5; Plant response rating, Johnsongrass [8, 20]: 25; Waterhemp plant response rating [9, 19]: 100; Plant response rating, Waterhemp [9, 20]: 100; Velvetleaf plant response rating [10, 19]: 55; Plant response rating, Velvetleaf [10, 20]: 70 |
| O=C(NC1CC1)c1cc(CCF)n(Cc2ccnc(C(F)(F)F)c2)n1 [Compound 176] | 100 | 100 | 90 | 60 | 100 | 100 | – | 5 | – | 98 | – | 35 | – | 0 | – | 100 | – | 30 | 100 | 80 | Ryegrass, Italian plant response rating [5, 19]: 10; Plant response rating, Ryegrass, Italian [5, 20]: 70; Ryegrass, Italian plant response rating [5, 21]: 85; Crabgrass, Large plant response rating [6, 19]: 95; Plant response rating, Crabgrass, Large [6, 20]: 100; Crabgrass, Large plant response rating [6, 21]: 100; Foxtail, Giant plant response rating [7, 19]: 90; Plant response rating, Foxtail, Giant [7, 20]: 100; Foxtail, Giant plant response rating [7, 21]: 100; Johnsongrass plant response rating [8, 19]: 20; Plant response rating, Johnsongrass [8, 20]: 65; Johnsongrass plant response rating [8, 21]: 85; Waterhemp plant response rating [9, 19]: 100; Plant response rating, Waterhemp [9, 20]: 100; Waterhemp plant response rating [9, 21]: 100; Velvetleaf plant response rating [10, 19]: 75; Plant response rating, Velvetleaf [10, 20]: 90; Velvetleaf plant response rating [10, 21]: 100 |
